Reference: US8916183B2, “Pesticidal compositions and processes related thereto” (priority 2012, dated 2014)
Where two headings read alike, the source gives them in different places.

Columns and labels:
Assay type in all cases: in vivo
[1] = tested on: Green Peach Aphid (GPA) (Myzus persicae); assay: Bioassay on green peach aphid (GPA), foliar spray on cabbage seedlings; conditions: read-out: % Mortality GPA 200 ppm
Experimental: Certain molecules disclosed in this document were tested against GPA using procedures described in the following example. In the reporting of the results, the “GPA Rating Table” was used (See Table Section).
Cabbage seedlings grown in 3-inch pots, with 2-3 small (3-5 cm) true leaves, were used as test substrate. The seedlings were infested with 20-50 GPA (wingless adult and nymph stages) one day prior to chemical application. Four pots with individual seedlings were used for each treatment. Test compounds (2 mg) were dissolved in 2 mL of acetone/methanol (1:1) solvent, forming stock solutions of 1000 ppm test compound. […] A hand-held aspirator-type sprayer was used for spraying a solution to both sides of […] leaves until runoff. Reference plants (solvent check) were sprayed with the diluent only containing 20% by volume of acetone/methanol (1:1) solvent. Treated plants were held in a holding room for three days at approximately 25° C. and ambient relative humidity (RH) prior to grading. Evaluation was conducted by counting the number of live aphids per plant under a microscope. […] Corrected % Control=100*(X−Y)/X • where • X=No. of live aphids on solvent check plants and • Y=No. of live aphids on treated plants
The results are indicated in the table entitled “Table 5: Biological Results” (See Table Section).

[2] = tested on: Beet Armyworm (BAW) (Spodoptera exigua); assay: Bioassay on beet armyworm (BAW), 128-well diet tray assay; conditions: Spodoptera exigua, read-out: % Mortality BAW 50 μg/cm^2
Experimental: (§1) Certain molecules disclosed in this document were tested against BAW and CEW using procedures described in the following examples. In the reporting of the results, the “BAW & CEW Rating Table” was used (See Table Section).
Bioassays on BAW (Spodoptera exigua)
Bioassays on BAW were conducted using a 128-well diet tray assay. […] Trays were covered with a clear self-adhesive cover and held at 25° C., 14:10 light-dark for five to seven days. Percent mortality was recorded for the larvae in each well; activity in the eight wells was then averaged. The results are indicated in the table entitled “Table 5: Biological Results” (See Table Section).

[3] = tested on: Corn Earworm (CEW) (Helicoverpa zea); assay: Bioassay on corn earworm (CEW), 128-well diet tray assay; conditions: Helicoverpa zea, read-out: % Mortality CEW 50 μg/cm^2
Experimental: as §1
Bioassays on CEW (Helicoverpa zea)
Bioassays on CEW were conducted using a 128-well diet tray assay. […] Trays were covered with a clear self-adhesive cover and held at 25° C., 14:10 light-dark for five to seven days. Percent mortality was recorded for the larvae in each well; activity in the eight wells was then averaged. The results are indicated in the table entitled “Table 5: Biological Results” (See Table Section).

Row | Structure (SMILES) | mortality at 200 ppm ([1]; green peach aphid, 200 ppm) [%] | mortality at 50 µg/cm2 ([2]; beet armyworm, 50 μg/cm^2) [%] | mortality at 50 µg/cm2 ([3]; corn earworm, 50 μg/cm^2) [%] | mortality at 200 ppm [1] [%] | mortality at 50 µg/cm2 [2] [%] | mortality at 50 µg/cm2 [3] [%]
1 | CC1CS/C(=N\N=C\c2ccc(-c3ncn(-c4ccc(OC(F)(F)F)cc4)n3)cc2)N(c2ccccc2C(C)C)C1 (racemic) [Compound 178C] | 0 | 50 to 100 | 50 to 100 |  |  | 
2 | CC(C)c1ccccc1N1C(=NN=Cc2ccc(-c3ncn(-c4ccc(OC(F)(F)F)cc4)n3)cc2)SCC1C (stereo in doubt) [Compound 155C, (Z)-3-(2-isopropylphenyl)-4-methyl-2-((E)-(4-(1-(4-(trifluoromethoxy)phenyl)-1H-1,2,4-triazol-3-yl)benzylidene)hydrazono)thiazolidine] | 0 | 50 to 100 | 50 to 100 |  |  | 
3 | CS/C(=N\c1ccc(N(C)C)cc1)N/N=C/c1ccc(-c2ncn(-c3ccc(OC(F)(F)F)cc3)n2)cc1 [Compound 1C, N-(4-dimethylaminophenyl)-S-methyl-2-{4-[1-(4-trifluoromethoxyphenyl)-1H-[1,2,4]-triazol-3-yl]-benzylidene}-hydrazine-carbothioamide] | 0 | 50 to 100 | 50 to 100 |  |  | 
4 | CCS/C(=N\c1c(Cl)cccc1Cl)N/N=C/c1ccc(-c2ncn(-c3ccc(OC(F)(F)F)cc3)n2)cc1 [Compound 2C] | 0 | 50 to 100 | 50 to 100 |  |  | 
5 | CCCS/C(=N\c1c(Cl)cccc1Cl)N/N=C/c1ccc(-c2ncn(-c3ccc(OC(F)(F)F)cc3)n2)cc1 [Compound 3C] | 0 | 50 to 100 | 50 to 100 |  |  | 
6 | Cc1cccc(C)c1/N=C(/N/N=C/c1ccc(-c2ncn(-c3ccc(OC(F)(F)F)cc3)n2)cc1)SC/C=C/Br [Compound 4C] | 0 to 80 | 50 to 100 | 50 to 100 |  |  | 
7 | Cc1cccc(C)c1/N=C(/N/N=C/c1ccc(-c2ncn(-c3ccc(OC(F)(F)F)cc3)n2)cc1)SCc1c(F)cccc1F [Compound 5C] | 0 to 80 | 50 to 100 | 50 to 100 |  |  | 
8 | Cc1cccc(C)c1/N=C(/N/N=C/c1ccc(-c2ncn(-c3ccc(OC(F)(F)F)cc3)n2)cc1)SCc1ccc(C(=O)O)cc1 [Compound 6C] | 0 | 50 to 100 | 50 to 100 |  |  | 
9 | Cc1cccc(C)c1/N=C(/N/N=C/c1ccc(-c2ncn(-c3ccc(OC(F)(F)F)cc3)n2)cc1)SCc1ccc(F)cc1F [Compound 7C] | 0 | 0 | 50 to 100 |  |  | 
10 | Cc1cccc(C)c1/N=C(/N/N=C/c1ccc(-c2ncn(-c3ccc(OC(F)(F)F)cc3)n2)cc1)SCc1ccc(OC(F)(F)F)cc1 [Compound 8C] | 0 to 80 | 50 to 100 | 50 to 100 |  |  | 
11 | Cc1cccc(C)c1/N=C(/N/N=C/c1ccc(-c2ncn(-c3ccc(OC(F)(F)F)cc3)n2)cc1)SCC#C[Si](C)(C)C [Compound 9C] |  |  |  | 0 | 50 to 100 | 50 to 100
12 | Cc1cccc(C)c1/N=C(/N/N=C/c1ccc(-c2ncn(-c3ccc(OC(F)(F)F)cc3)n2)cc1)SCc1ccccc1 [Compound 10C] | 0 | 50 to 100 | 50 to 100 |  |  | 
13 | Cc1cccc(C)c1/N=C(/N/N=C/c1ccc(-c2ncn(-c3ccc(OC(F)(F)F)cc3)n2)cc1)SCc1ccccc1F [Compound 11C] | 0 | 50 to 100 | 50 to 100 |  |  | 
14 | COC(=O)c1ccc(CS/C(=N\c2c(C)cccc2C)N/N=C/c2ccc(-c3ncn(-c4ccc(OC(F)(F)F)cc4)n3)cc2)cc1 [Compound 12C] | 0 to 80 | 50 to 100 | 50 to 100 |  |  | 
15 | Cc1cccc(C)c1/N=C(/N/N=C/c1ccc(-c2ncn(-c3ccc(OC(F)(F)F)cc3)n2)cc1)SCc1ccc(S(N)(=O)=O)cc1 [Compound 13C] | 0 to 80 | 50 to 100 | 50 to 100 |  |  | 
16 | Cc1cccc(C)c1/N=C(/N/N=C/c1ccc(-c2ncn(-c3ccc(OC(F)(F)F)cc3)n2)cc1)SCc1cccc2nsnc12 [Compound 14C] | 0 to 80 | 50 to 100 | 50 to 100 |  |  | 
17 | Cc1cccc(C)c1/N=C(/N/N=C/c1ccc(-c2ncn(-c3ccc(OC(F)(F)F)cc3)n2)cc1)SCc1ocnc1-c1ccccc1 [Compound 15C] | 80 to 100 | 50 to 100 | 50 to 100 |  |  | 
18 | Cc1cccc(C)c1/N=C(/N/N=C/c1ccc(-c2ncn(-c3ccc(OC(F)(F)F)cc3)n2)cc1)SCc1ccc(C(F)(F)F)o1 [Compound 16C] | 0 | 50 to 100 | 50 to 100 |  |  | 
19 | Cc1cccc(C)c1/N=C(/N/N=C/c1ccc(-c2ncn(-c3ccc(OC(F)(F)F)cc3)n2)cc1)SCc1ccc(S(C)(=O)=O)cc1 [Compound 17C] | 0 to 80 | 50 to 100 | 50 to 100 |  |  | 
20 | Cc1cccc(C)c1/N=C(/N/N=C/c1ccc(-c2ncn(-c3ccc(OC(F)(F)F)cc3)n2)cc1)SCc1ccc(S(=O)(=O)Nc2ccc(F)cc2)cc1 [Compound 18C] | 0 to 80 | 50 to 100 | 50 to 100 |  |  | 
21 | Cc1cccc(C)c1/N=C(/N/N=C/c1ccc(-c2ncn(-c3ccc(OC(F)(F)F)cc3)n2)cc1)SCc1cc2c(C(F)(F)F)nn(C)c2s1 [Compound 19C] | 0 to 80 | 50 to 100 | 50 to 100 |  |  | 
22 | Cc1cccc(C)c1/N=C(/N/N=C/c1ccc(-c2ncn(-c3ccc(OC(F)(F)F)cc3)n2)cc1)SCc1c(-c2ccccc2)noc1C [Compound 20C] | 0 | 50 to 100 | 50 to 100 |  |  | 
23 | CCOCC(=O)OCS/C(=N\c1c(C)cccc1C)N/N=C/c1ccc(-c2ncn(-c3ccc(OC(F)(F)F)cc3)n2)cc1 [Compound 22C] | 0 to 80 | 50 to 100 | 50 to 100 |  |  | 
24 | Cc1cccc(C)c1/N=C(/N/N=C/c1ccc(-c2ncn(-c3ccc(OC(F)(F)F)cc3)n2)cc1)SCOC(=O)CNC(=O)OCc1ccccc1 [Compound 23C] |  |  |  | 0 | 50 to 100 | 50 to 100
25 | Cc1cccc(C)c1/N=C(/N/N=C/c1ccc(-c2ncn(-c3ccc(OC(F)(F)F)cc3)n2)cc1)SCOC(=O)OC(C)C [Compound 24C] | 0 to 80 | 50 to 100 | 50 to 100 |  |  | 
26 | CCOCC(=O)OCS/C(=N\c1c(Cl)cc(OC)cc1Cl)N/N=C/c1ccc(-c2ncn(-c3ccc(OC(F)(F)F)cc3)n2)cc1 [Compound 32C] | 0 to 80 |  |  |  |  | 
27 | COc1cc(Cl)c(/N=C(/N/N=C/c2ccc(-c3ncn(-c4ccc(OC(F)(F)F)cc4)n3)cc2)SCOC(=O)C(C)C)c(Cl)c1 [Compound 34C] | 0 to 80 |  |  |  |  | 
28 | Cc1cccc(C)c1/N=C(/N/N=C/c1ccc(-c2ncn(-c3ccc(OC(F)(F)F)cc3)n2)cc1)SCOC(=O)C(C)OCC(F)(F)F (stereo not shown) [Compound 39C] | 0 |  |  |  |  | 
29 | CC(C)c1ccccc1/N=C1\SCCCN1/N=C/c1ccc(-c2ncn(-c3ccc(C(F)(F)F)cc3)n2)cc1 [Compound 87C, (2Z,NE)-2-((2-isopropylphenyl)imino)-N-(4-(1-(4-(trifluoromethyl)phenyl)-1H-1,2,4-triazol-3-yl)benzylidene)-1,3-thiazinan-3-amine] | 0 to 80 |  |  |  |  | 
